Measurements taken from US3932650A, “Trans-octahydropyridoindolobenzazepines as central nervous system depressants” (E. I. Du Pont de Nemours & Company, priority 1973, dated 1976).
Like-named read-outs stand apart in the source and are kept apart here.

Columns and labels:
eyelid closure (ptosis) [1] = assay: Ptosis, mouse; format: in vivo; conditions: po, read-out: Ptosis MED
[2] = test system: phenyl-p-benzoquinone-induced writhing; assay: Phenylquinone Writhing (P.Q.W.); format: in vivo, mouse; conditions: 0.5 h; mouse, po; phenyl-p-benzoquinone 2.5 mg/kg i.p. 30 minutes after compound; read-out: P.Q.W. ED50
eyelid closure (ptosis) [3] = assay: Ptosis, rat; format: in vivo; conditions: po, read-out: Ptosis MED
Excerpt: Degree of eyelid closure is used as a measure of central nervous system depression. An animal is removed from its observation cage and allowed to remain outside the cage for 30 seconds. At the end of this time a rating of degree of eyelid closure is made on an arbitrary scale.

catalepsy [4] = assay: Catalepsy, mouse; format: in vivo; conditions: po, read-out: Catalepsy MED
Excerpt: (§1) The ability of an animal to remain in an abnormal position is used as another indication of central nervous system depressant activity. A test animal is removed from its observation cage and positioned so that its hind legs are on the table top and its front legs rest on the side of the observation cage. If an animal maintains this position for at least 10 seconds, it is considered to be showing cataleptic behavior.

catalepsy [5] = assay: Catalepsy, rat; format: in vivo; conditions: po, read-out: Catalepsy MED
Excerpt: as §1

locomotor activity [6] = assay: Decreased Locomotor Activity (L.M.A.), mouse; format: in vivo; conditions: po, read-out: L.M.A. MED
Procedure: (§2) Decreased Locomotor Activity (L.M.A.)
(§3) This reaction sign is measured subjectively by observing how an animal behaves when it is removed from an observation cage and placed on a table top. […] The degree of stimulation by the observer needed to produce active locomotion is rated on an arbitrary scale. This ranges from a score of -1 where only a slight touch of the animal's body is required to a -4 where the animal is unresponsive or minimally responsive to the application of a pain stimulus (pressure at the base of the tail). The minimal effective dose (MED) is the lowest oral dose producting an obvious decrease of locomotor activity (with a score of at least -1). Groups of 3 mice are given decreasing oral doses at 0.5 log intervals (300, 100, 30. . .etc.) until no behavioral effects are evident. Decrease of locomotor activity is indicative of general central nervous system depressant activity.

locomotor activity [7] = assay: Decreased Locomotor Activity (L.M.A.), rat; format: in vivo; conditions: po, read-out: L.M.A. MED
Procedure: as §2, §3

[8] = test system: fear / feeding in approach-avoidance conflict; assay: Rat Conflict (Approach-Avoidance) Test; format: in vivo; conditions: po, read-out: Conflict MED
Procedure: Rat Conflict (Approach-Avoidance) Test (Conflict)
Results given in: mg/kg po/rat
Food deprived rats are trained to pass from one compartment to an adjacent one to obtain food. The training consists of 3 exposures to the test situation on day one of the experiment. The rats are given limited (1-2 hr) free access to food in their home cages on day one and are then food deprived for at least 18 hours. On day two of the experiment, the rats are given a control exposure to the test situation followed by a second exposure after one-half to 1 hour in which they are shocked after crossing and eating. Groups of 6-8 rats are then dosed orally with solvent or test compound and then re-exposed to the test situation after 1 or 2 hours.
Compounds showing minor tranquilizer (anxiolytic) activity in man such as diazepam and meprobamate produce an apparent decreased fear in the test animals so that they cross to obtain food despite having received a shock earlier. This effect is dose-related (and the MED is the minimum dose at which this effect is obtained); rats dosed with solvent only consistently show a high level of fear as evidenced by decreased mobility and absence of feeding when placed in the test situation after receiving a shock.

[9] = test system: conditioned avoidance response; assay: Conditioned Avoidance Response (C.A.R.), rat; format: in vivo; conditions: po, read-out: C.A.R. ED50
Procedure: (§4) Mouse and Rat Conditioned Avoidance Response (C.A.R.):
(§5) Mice and rats are trained to jump out of a pit onto a ledge to avoid shock when presented with a light and sound conditioned stimulus. The animals are tested 1, 2, and 4 hours after administration of the test compound. Three to four dose levels and groups of 4-8 animals/dose are used. The ED50 is the dose producing a block of the C.A.R. in 50% of the animals. Blocking of the C.A.R. at non-toxic doses appears to correlate with major tranquilizer activity in man.

[10] = test system: conditioned avoidance response; assay: Dog Conditioned Avoidance Response (C.A.R.); format: in vivo; conditions: Canis lupus familiaris, po, read-out: C.A.R. ED50
Procedure: Dog Conditioned Avoidance Response (C.A.R.):
Results given in: mg/kg po/dog
Dogs are trained to raise a forelimb when presented with a conditioned stimulus (light) in order to avoid an electric shock. Blocks of 10 trials are given to groups of 4 dogs during a pretreatment period and at 1, 2, and 4 hours after oral administration of the test compound. The ED50 values are calculated as the dose causing 50% of the animals to show 5 or more incorrect responses. Blocking of the C.A.R. at non-toxic doses appears to correlate with major tranquilizer activity in man.

[11] = test system: conditioned avoidance response; assay: Conditioned Avoidance Response (C.A.R.), mouse; format: in vivo; conditions: po, read-out: C.A.R. ED50
Procedure: as §4, §5

TBZ-induced ptosis [12] = assay: Tetrabenazine Antagonism (T.B.Z.A.), rat; format: in vivo; conditions: po, 1 h, read-out: T.B.Z.A. ED50
Procedure: (§6) Tetrabenazine Antagonism (T.B.Z.A.)
(§7) The tetrabenazine (TBZ) antagonism test is used to test for potential antidepressant-like activity in rodents. One hour after oral administration of a test compound, a 40 mg/kg dose of TBZ is given subcutaneously. Thirty minutes after TBZ administration, the mice are placed in the center of a circle; the diameter of the circle is twice the body length of the mouse or rat. After 30 seconds, a reading is made of the degree of ptosis and whether the animal has moved out of the circle. Animals that have received only TBZ will show marked ptosis and immobility. Tricyclic antidepressants of the imipramine type will antagonize the ptosis but not the immobility. Antidepressants of the amphetamine or monoamine oxidase inhibitory type will antagonize both the ptosis and immobility induced by TBZ. The ED50 is the dose producing antagonism of TBZ-induced ptosis, but not of TBZ-induced immobility, in 50% of the animals.

taming = assay: Rhesus Monkey Taming Effects; format: in vivo; conditions: Macaca mulatta, po, read-out: Taming MED
Procedure: Rhesus Monkey Taming Effects (Taming):
Results given in: mg/kg po/monkey
Compounds are administered orally to groups of 6 rhesus monkeys. The behavior of the animals is then evaluated by observational means. Taming effects are determined by the ability of the observer to approach and touch the monkey. Compounds with major tranquilizer activity in man can produce a state of passive tameness in the rhesus monkey wherein it can be touched without provoking any of the threatening or aggressive behavior seen in the normal animal. The MED is the minimal oral dose at which some taming effect can be observed.

TBZ-induced ptosis [13] = assay: Tetrabenazine Antagonism (T.B.Z.A.), mouse; format: in vivo; conditions: po, 1 h, read-out: T.B.Z.A. ED50
Procedure: as §6, §7

Row | Compound | minimal effective dose (eyelid closure (ptosis) [1]; mouse, passive ptosis) | ED50 [2] | minimal effective dose (eyelid closure (ptosis) [3]; rat, passive ptosis) | minimal effective dose (catalepsy [4]; mouse) | minimal effective dose (catalepsy [5]; rat) | minimal effective dose (locomotor activity [6]; mouse, minimal effective dose) | minimal effective dose (locomotor activity [7]; minimal effective dose) | also measured
1 | c1ccc(CN2CC[C@@H]3[C@@H](C2)c2cccc4c2N3c2ccccc2CC4)cc1 (relative stereo) [Example 6, trans-3-Benzyl-1,2,3,4,4a,8,9,14a-octahydropyrido[4',3':2,3]indolo[1,7-ab][1]benzazepine] | 13 mg/kg | 28 mg/kg | 150 mg/kg | 49 mg/kg | > 300 mg/kg | 2 mg/kg | 65 mg/kg | 
2 | c1ccc2c(c1)CCc1cccc3c1N2[C@H]1CCN(C[C@H]2[C@@H]4CCCC[C@@H]42)C[C@H]31 (relative stereo) [Example 7, trans-1,2,3,4,4a,8,9,14a-Octahydro-3-(exo-7-norcarylmethyl)pyrido[4',3':2,3] indolo[1,7-ab][1]benzazepine] | 3 mg/kg | 14 mg/kg | 3 mg/kg | 3 mg/kg | 300 mg/kg | 3 mg/kg | 3 mg/kg | 
3 | Cl.c1ccc2c(c1)CCc1cccc3c1N2[C@@H]1CCN(CC2CCCC2)C[C@@H]31 (relative stereo) [cyclopentylmethyl, trans-3-cyclopentylmethyl1,2,3,4,4a,8,9,14a-octahydropyrido[4',3':2,3]indolo[1,7-ab][1]benzazepine hydrochloride] |  | 2 mg/kg |  |  |  |  |  | 
4 | CN1CC[C@H]2[C@@H](C1)c1cccc3c1N2c1ccccc1CC3 (relative stereo) [methyl octahydro cis] |  |  |  |  |  |  |  | minimal effective dose (eyelid closure (ptosis) [1]; Mus musculus): > 300 mg/kg; minimal effective dose (eyelid closure (ptosis) [3]; Rattus norvegicus): > 300 mg/kg; minimal effective dose ([8]; Rattus norvegicus): > 40 mg/kg; ED50 ([9]; Rattus norvegicus, 4 h): > 40 mg/kg; minimal effective dose (catalepsy [4]; Mus musculus): > 300 mg/kg; ED50 ([10]; 4 h): > 30 mg/kg; ED50 ([11]; Mus musculus, 4 h): > 40 mg/kg; ED50 (TBZ-induced ptosis [12]; Rattus norvegicus): 7.4 mg/kg; minimal effective dose (taming): > 20 mg/kg; minimal effective dose (catalepsy [5]; Rattus norvegicus): > 300 mg/kg; minimal effective dose (locomotor activity [6]; Mus musculus): 30 mg/kg; minimal effective dose (locomotor activity [7]): 30 mg/kg; ED50 (TBZ-induced ptosis [13]; Mus musculus): 15 mg/kg
5 | c1ccc(CCN2CC[C@H]3[C@H](C2)c2cccc4c2N3c2ccccc2CC4)cc1 (relative stereo) [phenethyl, trans-1,2,3,4,4a,8,9,14a-octahydro-3-phenethylpyrido[4',3+:2,3]indolo[1,7-ab][1]benzazepine] |  | 4.7 mg/kg |  |  |  |  |  | 
6 | c1ccc2c(c1)CCc1cccc3c4c(n-2c13)CCN(CC1CC1)C4 [(cyclopropylmethyl) hexahydro, 3-(cyclopropylmethyl)-1,2,3,4,8,9-hexahydropyrido[4',3':2,3]indolo[1,7-ab][1]benzazepine] | 30 mg/kg |  | 30 mg/kg | 30 mg/kg | 30 mg/kg | 10 mg/kg | 10 mg/kg | minimal effective dose ([8]; rat, after 1 or 2 hours): 10 mg/kg; ED50 ([9]; rat, block of C.A.R. in 50% of animals, 1, 2, and 4 hours): 40 mg/kg; ED50 ([10]; dog, 5 or more incorrect responses in 50% of animals, 1, 2, and 4 hours): > 30 mg/kg; ED50 ([11]; mouse, block of C.A.R. in 50% of animals, 1, 2, and 4 hours): 20 mg/kg; ED50 (TBZ-induced ptosis [12]; rat, TBZ 40 mg/kg s.c. one hour after compound): > 100 mg/kg; minimal effective dose (taming; rhesus monkey): 3 mg/kg; ED50 (TBZ-induced ptosis [13]; mouse, TBZ 40 mg/kg s.c. one hour after compound): > 100 mg/kg
